Molecules are shown by their SMILES.

For one data set, the system named is DU145. The data set can be described thus: cells. Also noted: species or system human cancer cell lines. The conditions noted are these: Homo sapiens, DU-145, 48 h, read-out: DU145.
A short description of another data set: in vitro. The note with it: human, mrc5 cells.
The subject of the next data set is HepG2. The data set can be described thus: cells. More on the design: species or system human cancer cell lines. The conditions noted are these: Homo sapiens, HepG2, 48 h, read-out: HepG2.
A further data set relates to SKOV3. Briefly: cells. The note with it: Homo sapiens, SK-OV-3, 48 h, read-out: SKOV3. More on the design: species or system human cancer cell lines.
The next data set relates to MDA MB-231. Briefly: cells. More on the design: species or system human cancer cell lines. The conditions noted are these: Homo sapiens, MDA-MB-231, 48 h, read-out: MDA MB-231.
The test system of the next data set is MCF7. Briefly: cells. More on the design: species or system human cancer cell lines. The note with it: Homo sapiens, MCF7, 48 h, read-out: MCF7.
The target in a further data set is porcine brain tubulin (Sus scrofa, UniProt P02550+P02554). Briefly: fluorescence-based tubulin polymerization assay. The conditions noted are these: read-out: % inhibition at 3 μM. The data set is classed as biochemical.
porcine brain tubulin, sequence (P02550 whole entry): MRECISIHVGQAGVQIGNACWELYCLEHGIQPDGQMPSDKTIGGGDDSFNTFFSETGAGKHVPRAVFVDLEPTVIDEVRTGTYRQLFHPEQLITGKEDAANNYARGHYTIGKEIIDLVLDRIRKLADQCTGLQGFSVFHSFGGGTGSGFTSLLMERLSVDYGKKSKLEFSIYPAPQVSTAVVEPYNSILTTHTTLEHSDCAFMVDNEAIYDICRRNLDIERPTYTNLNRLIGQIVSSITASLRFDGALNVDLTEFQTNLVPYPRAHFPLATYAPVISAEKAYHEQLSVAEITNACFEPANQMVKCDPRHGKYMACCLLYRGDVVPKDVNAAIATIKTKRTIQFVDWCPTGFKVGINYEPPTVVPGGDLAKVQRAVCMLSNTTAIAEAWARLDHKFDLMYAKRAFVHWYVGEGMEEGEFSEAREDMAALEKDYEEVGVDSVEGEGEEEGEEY
porcine brain tubulin, sequence (P02554 whole entry): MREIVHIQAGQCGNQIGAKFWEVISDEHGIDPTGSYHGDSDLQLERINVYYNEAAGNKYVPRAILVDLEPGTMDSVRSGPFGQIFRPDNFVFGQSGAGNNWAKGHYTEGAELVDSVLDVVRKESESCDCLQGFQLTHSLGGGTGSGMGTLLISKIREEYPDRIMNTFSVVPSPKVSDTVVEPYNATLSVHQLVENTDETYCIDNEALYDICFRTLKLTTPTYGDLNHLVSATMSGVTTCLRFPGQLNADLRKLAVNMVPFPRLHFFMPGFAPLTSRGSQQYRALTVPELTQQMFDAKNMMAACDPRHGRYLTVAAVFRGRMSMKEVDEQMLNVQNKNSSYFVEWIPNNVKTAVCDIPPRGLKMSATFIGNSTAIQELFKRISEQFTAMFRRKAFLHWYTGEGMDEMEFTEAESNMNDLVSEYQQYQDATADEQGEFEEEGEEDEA

For orientation: CC50 means the concentration giving 50% cytotoxicity. Low values mean harm at low concentration, high ones better tolerance by the cells. With `O=[N+]([O-])c1ccc(C=NNc2nc(-c3ccccc3)c3cc(Cl)ccc3n2)o1` [ATS-4], the GI50 in the data set on DU145 is 810 ± 70 nM; with HepG2 it was 1.35 ± 0.45 µM; in the data set with SKOV3, 2750 ± 350 nM; in the data set on MDA MB-231, above 10 µM; in the data set on MCF7, above 10000 nM. This compound also showed a CC50 at 48 h in the data set “in vitro” of 162 ± 1.82 µM.

Regarding `COC(=O)Nc1nc2ccc(C(=O)c3cccs3)cc2[nH]1` [nocodazole], the GI50 in the data set on DU145 was 170 ± 70 nM; in the data set with HepG2 it was 7.06 ± 0.54 µM; in the data set on SKOV3 it was below 100 nM; in the data set on MDA MB-231 it was 2.8 ± 0.51 µM; in the data set on MCF7, below 100 nM. This compound also registered a 50% cytotoxic concentration (CC50) at 48 h in “in vitro” of 129 ± 1.48 µM.

With `Clc1ccc2nc(NN=Cc3c(Cl)cccc3Cl)nc(-c3ccccc3)c2c1` [ATS-3], the GI50 is 2270 ± 370 nM in the data set on DU145; above 10 µM in the data set with HepG2; 470 ± 60 nM in the data set on SKOV3; 8.84 ± 0.12 µM in the data set with MDA MB-231; above 10000 nM with MCF7. This compound came in with a CC50 at 48 h in the data set “in vitro” of 159 ± 1.06 µM.

By inhibition is commonly meant the relative decrease from the control value, in per cent. For `Clc1ccc2nc(Nc3c(Cl)cccc3Cl)nc(-c3ccccc3)c2c1` [ATS-7], the GI50 with DU145 was above 10000 nM; with HepG2 it was above 10 µM; in the data set on SKOV3 it was 10400 ± 620 nM; in the data set on MDA MB-231 it was above 10 µM; in the data set on MCF7, 600 ± 70 nM. The same compound returned a CC50 at 48 h in “in vitro” of 141 ± 1.41 µM. In addition, the inhibition at 3 µM on porcine brain tubulin came out at 59%.

Turning to `COc1cccc2c1C(=O)c1c(O)c3c(c(O)c1C2=O)C[C@@](O)(C(=O)CO)C[C@@H]3O[C@H]1C[C@H](N)[C@H](O)[C@H](C)O1` [Doxorubicin], the GI50 with DU145 was below 100 nM; in the data set on HepG2 it was below 0.1 µM; in the data set with SKOV3, 1170 ± 520 nM; in the data set on MDA MB-231, below 0.1 µM; in the data set on MCF7, below 100 nM.

On to `Clc1ccc2nc(Cl)nc(-c3ccccc3Cl)c2c1` [ATS-1], for which the GI50 in the data set on DU145 was above 10000 nM; in the data set with HepG2, above 10 µM; with SKOV3, 150 ± 50 nM; in the data set on MDA MB-231 it was above 10 µM; in the data set on MCF7 it was above 10000 nM. For the same compound, half-maximal cytotoxicity in the data set “in vitro” (CC50 at 48 h) was put at 136 ± 1.63 µM.

Values taken from article doi:10.1101/108654v1 (biorxiv, 2017).
